ChEMBL document CHEMBL5365471, “Discovery of marine phidianidine-based Nrf2 activators and their potential against oxLDL- and HG-induced injury in HUVECs” (Bioorg Med Chem Lett, 2023)
Activity calls are given as the source filed them. The calls are words filed in the database; no cut-off is given here.

Key:
[1] = tested on: HUVEC; experiment: Cytoprotective activity against oxLDL-induced apoptosis in HUVEC treated with scambled siRNA at 10 uM measured after 6 hrs by TUNEL assay; assay type: functional, cell-based; conditions: Homo sapiens
[2] = tested on: HUVEC; experiment: Cytoprotective activity against oxLDL-induced apoptosis in Nrf2-knockdown HUVEC at 10 uM measured after 6 hrs by TUNEL assay; assay type: functional, cell-based; conditions: Homo sapiens
[3] = tested on: HUVEC; experiment: Cytoprotective activity against high glucose-induced apoptosis in Nrf2-knockdown HUVEC at 10 uM measured after 24 hrs by TUNEL assay; assay type: functional, cell-based; conditions: Homo sapiens
[4] = molecular target: T1, Nuclear factor erythroid 2-related factor 2 (Homo sapiens) (UniProt Q16236); experiment: Induction of Nrf2/ARE activation in human Hela cells at 1 uM measured after 12 to 24 hrs by luciferase reporter gene assay relative to control; assay type: cell-based; conditions: filed as activator, time 12-24 hrs
T1 sequence (whole entry): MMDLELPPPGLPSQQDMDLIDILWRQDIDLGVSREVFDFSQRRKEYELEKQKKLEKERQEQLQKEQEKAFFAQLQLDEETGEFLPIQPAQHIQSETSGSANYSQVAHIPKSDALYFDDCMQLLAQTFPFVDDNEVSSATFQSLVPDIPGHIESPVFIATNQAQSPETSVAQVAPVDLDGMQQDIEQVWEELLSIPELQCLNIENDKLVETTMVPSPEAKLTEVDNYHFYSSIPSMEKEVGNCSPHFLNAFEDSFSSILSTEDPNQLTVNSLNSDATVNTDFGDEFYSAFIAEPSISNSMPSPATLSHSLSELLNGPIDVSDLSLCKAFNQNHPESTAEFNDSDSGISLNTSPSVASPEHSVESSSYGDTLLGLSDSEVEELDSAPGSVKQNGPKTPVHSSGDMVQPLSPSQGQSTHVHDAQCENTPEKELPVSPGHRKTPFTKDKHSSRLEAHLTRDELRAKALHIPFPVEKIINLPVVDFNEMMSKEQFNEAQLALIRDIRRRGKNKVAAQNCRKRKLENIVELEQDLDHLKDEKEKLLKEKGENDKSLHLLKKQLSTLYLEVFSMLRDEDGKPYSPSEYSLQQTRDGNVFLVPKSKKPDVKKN

[5] = tested on: HUVEC; experiment: Cytoprotective activity against high glucose-induced apoptosis in HUVEC cells measured after 24 hrs by TUNEL assay; assay type: functional, cell-based; conditions: Homo sapiens, dose 5-10 µM
[6] = tested on: HUVEC; experiment: Cytoprotective activity against high glucose induced apoptosis in HUVEC treated with scambled siRNA at 10 uM measured after 24 hrs by TUNEL assay; assay type: functional, cell-based; conditions: Homo sapiens
[7] = molecular target: T1, Nuclear factor erythroid 2-related factor 2 (Homo sapiens); experiment: Induction of Nrf2/ARE activation in human Hela cells at 10 uM measured after 12 to 24 hrs by luciferase reporter gene assay relative to control; assay type: cell-based; conditions: filed as activator, time 12-24 hrs
[8] = molecular target: T1, Nuclear factor erythroid 2-related factor 2 (Homo sapiens); experiment: Induction of Nrf2/ARE activation in human Hela cells at 20 uM measured after 12 to 24 hrs by luciferase reporter gene assay relative to control; assay type: cell-based; conditions: filed as activator, time 12-24 hrs
[9] = tested on: HUVEC; experiment: Cytoprotective activity against high glucose-induced HUVEC cell damage assessed as increase in cell viability at 10 uM by SRB assay; assay type: functional, cell-based; conditions: Homo sapiens
[10] = molecular target: T1, Nuclear factor erythroid 2-related factor 2 (Homo sapiens); experiment: Induction of Nrf2 nuclear translocation in high glucose-induced HUVEC cells at 5 to 10 uM measured after 24 hrs by immunofluorescence staining analysis; assay type: cell-based; conditions: filed as activator, dose 5-10 µM
[11] = molecular target: T1, Nuclear factor erythroid 2-related factor 2 (Homo sapiens); experiment: Induction of Nrf2/ARE activation in human Hela cells at 5 uM measured after 12 to 24 hrs by luciferase reporter gene assay relative to control; assay type: cell-based; conditions: filed as activator, time 12-24 hrs
[12] = tested on: HUVEC; experiment: Cytoprotective activity against oxLDL-induced apoptosis in HUVEC cells measured after 6 hrs by TUNEL assay; assay type: functional, cell-based; conditions: Homo sapiens, dose 5-10 µM
[13] = molecular target: T1, Nuclear factor erythroid 2-related factor 2 (Homo sapiens); experiment: Induction of Nrf2 nuclear translocation in oxLDL-induced HUVEC cells at 5 to 10 uM measured after 6 hrs by immunofluorescence staining analysis; assay type: cell-based; conditions: filed as activator, dose 5-10 µM
[14] = tested on: HUVEC; experiment: Cytoprotective activity against oxLDL-induced HUVEC cell damage assessed as increase in cell viability at 10 uM by SRB assay; assay type: functional, cell-based; conditions: Homo sapiens
[15] = tested on: HUVEC; experiment: Cytotoxicity against HUVEC assessed as effect on cell viability by SRB assay; assay type: toxicity, cell-based; conditions: human
[16] = molecular target: Keap1/Nrf2 (Homo sapiens) (UniProt Q16236+Q14145); experiment: Inhibition of Keap1-Nrf2 protein-protein interaction (unknown origin) at 100 uM measured after 60 mins by FITC-betaAla-DEETGEF-OH probe based fluorescent polarization assay
Chain of Keap1/Nrf2 (Homo sapiens) (Q14145 whole entry, looked up, one chain of several): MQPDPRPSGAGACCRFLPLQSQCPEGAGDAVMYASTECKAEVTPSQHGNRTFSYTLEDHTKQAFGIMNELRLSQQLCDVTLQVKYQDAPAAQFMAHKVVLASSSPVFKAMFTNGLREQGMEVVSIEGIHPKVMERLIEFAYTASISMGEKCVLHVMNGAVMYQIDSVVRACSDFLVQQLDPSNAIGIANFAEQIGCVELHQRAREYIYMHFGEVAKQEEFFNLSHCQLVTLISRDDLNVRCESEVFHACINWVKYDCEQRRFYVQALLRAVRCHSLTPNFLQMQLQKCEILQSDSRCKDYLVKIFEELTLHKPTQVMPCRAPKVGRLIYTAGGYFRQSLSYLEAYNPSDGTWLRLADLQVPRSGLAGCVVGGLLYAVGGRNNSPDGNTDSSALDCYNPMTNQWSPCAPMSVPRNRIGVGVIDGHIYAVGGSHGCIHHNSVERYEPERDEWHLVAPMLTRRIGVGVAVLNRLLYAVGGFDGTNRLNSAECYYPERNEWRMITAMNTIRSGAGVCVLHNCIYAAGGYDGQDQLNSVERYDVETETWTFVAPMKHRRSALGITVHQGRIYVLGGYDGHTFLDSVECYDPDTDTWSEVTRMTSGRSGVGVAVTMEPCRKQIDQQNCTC

fold change (FC) [4]: 1.89
fold change (FC) [7]: 7.78
fold change (FC) [8]: 7.41
Activity [10]: Active
fold change (FC) [11]: 3.69
Activity [13]: Active
inhibition [16]: inactive
SMILES: COc1ccc(/C=C/C(=O)N2CCN(Cc3noc(Cc4c[nH]c5ccccc45)n3)CC2)cc1O
Activity [1]: Active
Activity [2]: inactive
Activity [3]: inactive
Activity [5]: Dose-Dependent Effect
Activity [6]: Active
Activity [9]: Active
Activity [12]: Dose-Dependent Effect
Activity [14]: Active
Activity [15]: Non-Toxic
